Results published in patent US12064438B2, “Pharmaceutical preparation excellent in light stability and dissolution property” (priority 2017, dated 2024).

What was measured:
influenza virus [1] = experiment: Clinical test: randomized, placebo-controlled, double-blind study, time to alleviation of influenza symptoms (10, 20, 40 mg); assay type: in vivo, human
influenza virus [2] = assay type: in vivo, human; conditions: 20 to younger than 65 years old, Compound II-6 single 40 or 80 mg, Oseltamivir 75 mg twice a day for 5 days
[3] = for Adverse events the causal relationship of which cannot be denied, number of episodes: Compound II-6 610 patients, Oseltamivir 513 patients; for Adverse events the causal relationship of which cannot be denied, proportion of patients: Compound II-6 single 40 or 80 mg, Oseltamivir 75 mg twice a day for 5 days
From the text: The number of side-effect episodes and the number of patients with side effect were counted for each administration group.

[4] = single oral 20 mg, Cox proportional hazard model relative to placebo
[5] = single oral 40 mg, baseline symptom moderate or severe

COC(=O)OCOc1c2n(ccc1=O)N([C@@H]1c3ccccc3SCc3c1ccc(F)c3F)[C@@H]1COCCN1C2=O [Compound II-6]
Time until muscular or joint pain symptom is alleviated, Hazard ratio (influenza virus [1]; single oral 10 mg, Cox proportional hazard model relative to placebo): 0.77
Time to alleviation of influenza symptoms, Hazard ratio (influenza virus [1]; [4]): 0.81
Time until nasal congestion symptom is alleviated, Hazard ratio (influenza virus [1]; [4]): 0.59
median time until muscular or joint pain was improved, shorter in the 40 mg administered group than the placebo group (influenza virus [1]; single oral 40 mg): 16.4 h
median time until nasal congestion was improved, shorter in the 40 mg administered group than the placebo group (influenza virus [1]; single oral 40 mg): 21.0 h
Time until feverishness or chills symptom is alleviated, Hazard ratio (influenza virus [1]; single oral 40 mg, Cox proportional hazard model relative to placebo): 0.71
Time until muscular or joint pain symptom is alleviated, Difference from placebo (influenza virus [1]; [5]): -16.4 h
Time until nasal congestion symptom is alleviated, Difference from placebo (influenza virus [1]; [5]): -21 h
time to termination of viral shedding based on virus titer (influenza virus [2]): 24.0 h
Amount of change in virus titer from baseline, Mean (influenza virus [2]; Day 5): −4.95 log10 [TCID50/mL]
Adverse events the causal relationship of which cannot be denied, number of episodes [3]: 37 episodes
Adverse events the causal relationship of which cannot be denied, proportion of patients [3]: 4.4%
Severe adverse events the causal relationship of which cannot be denied ([3]; human, in vivo): not reported

CCOC(=O)C1=C[C@@H](OC(CC)CC)[C@H](NC(C)=O)[C@@H](N)C1 [Oseltamivir, reference compound]
time to termination of viral shedding based on virus titer (influenza virus [2]): 72.0 h
Adverse events the causal relationship of which cannot be denied, number of episodes [3]: 53 episodes
Adverse events the causal relationship of which cannot be denied, proportion of patients [3]: 8.4%
